Common to all, as to type: cell-based
Assay [1] has as its target T1, EGFR (T790M/L858R), H1975 cell (Homo sapiens, UniProt P00533, L858R/T790M).
T1 construct: endogenous in cells; host or cells: H1975
The assay is described as follows: ELISA assay of EGFR phosphorylation in H1975 cells. To be noted: for IC50: EGFR pY1068 sandwich ELISA, 2 hours compound in serum-free medium; for Selectivity (WT/T790M): ratio of IC50 A431 cell (WT) to IC50 H1975 cell (T790M/L858R). The method, then:
(§1) H1975 and A431 cells were seeded onto each well of a 96-well plate at a density of 4×10^4 cells per well. After 24 hours of growth in serum-containing media, cells were treated with test compound in serum-free medium for 2 hours. A431 cells were stimulated with 30 ng/mL EGF during the last 15 minutes of compound treatment. Cells were washed with ice cold PBS before extraction with 100 μl per well cell lysis buffer. Phosphorylation of EGFR was measured using a sandwich ELISA assay with the pair of phospho-specific EGFR (pY1068) and total EGFR antibodies.

A further assay addresses T2, EGFR (WT), A431 cell (Homo sapiens, UniProt P00533).
T2 construct: endogenous in cells; host or cells: A431
The assay is described as follows: ELISA assay of EGFR phosphorylation in A431 cells. The following applies: EGFR pY1068 sandwich ELISA, 2 hours compound, 30 ng/mL EGF last 15 minutes. The method, then:
as §1

The next assay concerns H1975 cells. The assay is described as follows: H1975 cell viability assay (cytotoxicity, xCelligence RTCA). To be noted: 3 days. The method, then:
(§2) All cell lines were obtained from the American Type Culture Collection and were maintained at 37° C. with 5% CO2, in media supplemented with 10% fetal bovine serum and 1% L-glutamine-penicillin-streptomycin. H1975, HCC827 and A549 cells were cultured with RPMI 1640 media. A431 and Hela cells were maintained in Dulbecco's Modification of Eagle's Medium. EGF (R&D), EGF inhibitors were resuspended and stored according to the manufacturers' instructions.
(§3) Cells were seeded in 96-well E-Plate devices, and attachment, spreading, and proliferation were monitored using the xCelligence RTCA system. After 20 h of RTCA profiling, the cells were treated with the indicated compounds prediluted in growth media to a final maximal DMSO concentration of 0.1%, and the responses were measured at 30-min intervals for 3 days. For each cell type the optimal cell concentration was chosen based on their respective proliferation pattern.

Another assay has as its system A549 cells. The assay is described as follows: A549 cell viability assay (cytotoxicity, xCelligence RTCA). The following applies: Homo sapiens, 72 h, 3 days. The method, then: as §2, §3
Another assay has as its system HeLa cells. Put plainly: HeLa cell viability assay (cytotoxicity, xCelligence RTCA). The following applies: Homo sapiens, 72 h, 3 days. The method, then: as §2, §3
The subject of a further assay is EGFR in H1975 cells. The assay is described as follows: H1975 EGF stimulation assay (impedance, xCelligence RTCA). To be noted: Homo sapiens, NCI-H1975, 40 min pretreatment, EGF 30 ng/mL. The method, then: as §2
(§4) Impedance measurements were taken using the xCelligence RTCA system (Roche Applied Science) instrument using the E-plates 96-well device from the same company. Cells were trypsinized and seeded on a 96-well E-plate at a density of 15000 cells per well in a volume of 0.1 ml. Cells were allowed to attach and proliferate overnight. Prior to compound treatment, H1975 cells were serum starved in RPMI-1640 for a total of 4 h. Following serum starvation, the cells were pretreated with compounds or vehicle for 40 min and then stimulated with EGF at 30 ng/mL. Throughout the experimental process, the cells were continually monitored, and the changes in impedance were acquired with the xCelligence RTCA system. After EGF treatment, data acquisition was done every minute for up to 2 h. For each cell type the optimal cell concentration was chosen based on their respective proliferation pattern.

A further assay deals with EGFR in A431 cells. Put plainly: A431 EGF stimulation assay (impedance, xCelligence RTCA). The following applies: Homo sapiens, A-431. The method, then: All cell lines were obtained from the American Type Culture Collection and were maintained at 37° C. with 5% CO2, in media supplemented with 10% fetal bovine serum and 1% L-glutamine-penicillin-streptomycin. […] A431 and Hela cells were maintained in Dulbecco's Modification of Eagle's Medium. EGF (R&D), EGF inhibitors were resuspended and stored according to the manufacturers' instructions.
as §4, with “Prior to compound treatment, H1975 cells were serum starved in RPMI-1640 for a total of 4 h.” left out

The results in this text go back to US11612602B2, “Heterocyclic compounds and uses as anticancer agents” (ACEA Therapeutics, Inc., priority 2012, dated 2023).

T1 sequence (P00533 25-1210 T790M/L858R): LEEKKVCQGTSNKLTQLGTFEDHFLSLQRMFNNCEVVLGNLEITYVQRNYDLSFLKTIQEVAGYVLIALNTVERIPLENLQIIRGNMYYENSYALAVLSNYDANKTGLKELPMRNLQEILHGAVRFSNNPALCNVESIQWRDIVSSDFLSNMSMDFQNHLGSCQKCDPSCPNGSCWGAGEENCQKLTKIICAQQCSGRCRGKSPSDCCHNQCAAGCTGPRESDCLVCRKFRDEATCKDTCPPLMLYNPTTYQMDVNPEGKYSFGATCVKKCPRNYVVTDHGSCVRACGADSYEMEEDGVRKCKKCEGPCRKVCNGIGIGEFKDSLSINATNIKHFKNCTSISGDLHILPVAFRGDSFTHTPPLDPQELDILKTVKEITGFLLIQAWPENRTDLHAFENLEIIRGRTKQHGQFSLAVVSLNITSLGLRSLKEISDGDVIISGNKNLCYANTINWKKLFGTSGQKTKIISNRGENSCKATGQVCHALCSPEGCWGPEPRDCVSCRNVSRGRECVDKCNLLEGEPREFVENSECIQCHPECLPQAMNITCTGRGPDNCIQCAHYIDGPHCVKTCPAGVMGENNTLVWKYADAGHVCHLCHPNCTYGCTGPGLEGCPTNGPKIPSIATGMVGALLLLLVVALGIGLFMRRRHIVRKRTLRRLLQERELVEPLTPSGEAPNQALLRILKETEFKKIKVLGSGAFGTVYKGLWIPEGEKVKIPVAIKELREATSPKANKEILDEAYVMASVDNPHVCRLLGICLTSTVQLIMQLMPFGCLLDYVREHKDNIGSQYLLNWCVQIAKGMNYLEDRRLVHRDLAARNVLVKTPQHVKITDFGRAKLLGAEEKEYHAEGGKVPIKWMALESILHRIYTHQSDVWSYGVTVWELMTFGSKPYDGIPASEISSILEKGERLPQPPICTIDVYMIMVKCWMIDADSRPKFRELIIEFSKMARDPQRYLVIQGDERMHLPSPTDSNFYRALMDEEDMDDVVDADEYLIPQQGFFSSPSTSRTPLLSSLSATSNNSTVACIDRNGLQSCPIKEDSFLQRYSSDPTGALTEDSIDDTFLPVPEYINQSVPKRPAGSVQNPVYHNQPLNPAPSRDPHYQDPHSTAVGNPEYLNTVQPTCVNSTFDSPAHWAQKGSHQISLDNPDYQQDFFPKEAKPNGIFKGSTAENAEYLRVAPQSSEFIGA
T2 sequence (P00533 25-1210): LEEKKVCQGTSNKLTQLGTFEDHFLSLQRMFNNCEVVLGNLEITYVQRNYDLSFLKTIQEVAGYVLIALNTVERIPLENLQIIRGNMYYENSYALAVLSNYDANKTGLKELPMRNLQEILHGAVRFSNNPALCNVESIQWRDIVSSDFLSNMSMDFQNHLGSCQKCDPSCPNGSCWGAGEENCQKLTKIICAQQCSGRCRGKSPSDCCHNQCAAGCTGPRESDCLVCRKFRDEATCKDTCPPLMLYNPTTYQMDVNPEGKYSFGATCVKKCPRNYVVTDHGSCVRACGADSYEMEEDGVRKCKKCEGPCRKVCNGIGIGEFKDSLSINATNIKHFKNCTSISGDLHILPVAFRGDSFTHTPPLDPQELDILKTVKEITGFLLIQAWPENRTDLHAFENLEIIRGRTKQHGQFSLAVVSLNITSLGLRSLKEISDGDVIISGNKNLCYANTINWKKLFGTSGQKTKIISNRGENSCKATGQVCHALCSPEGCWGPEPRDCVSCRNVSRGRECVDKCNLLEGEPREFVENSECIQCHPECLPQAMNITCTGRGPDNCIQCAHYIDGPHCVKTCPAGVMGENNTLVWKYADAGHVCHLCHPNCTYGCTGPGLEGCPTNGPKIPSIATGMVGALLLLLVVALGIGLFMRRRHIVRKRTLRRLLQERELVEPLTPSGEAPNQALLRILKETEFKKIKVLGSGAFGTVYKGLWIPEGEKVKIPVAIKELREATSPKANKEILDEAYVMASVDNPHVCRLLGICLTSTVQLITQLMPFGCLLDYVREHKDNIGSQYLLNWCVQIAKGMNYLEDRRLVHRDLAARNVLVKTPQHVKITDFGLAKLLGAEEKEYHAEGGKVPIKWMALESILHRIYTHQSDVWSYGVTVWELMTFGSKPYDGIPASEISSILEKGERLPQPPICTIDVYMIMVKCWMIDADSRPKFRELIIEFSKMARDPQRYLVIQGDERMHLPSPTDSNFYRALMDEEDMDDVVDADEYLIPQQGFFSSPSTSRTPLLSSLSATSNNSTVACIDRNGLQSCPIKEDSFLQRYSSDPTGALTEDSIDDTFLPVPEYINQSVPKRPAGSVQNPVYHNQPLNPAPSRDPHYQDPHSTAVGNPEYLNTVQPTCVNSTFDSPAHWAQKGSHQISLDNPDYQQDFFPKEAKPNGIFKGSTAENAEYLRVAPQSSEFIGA

In the case of `C=CC(=O)Nc1cccc(C(F)(F)c2nc(Nc3ccc(N4CCN(C)CC4)nc3)ncc2F)c1` [Compound 33], the IC50 in assay [1] was 0.099 µM; on EGFR (WT), A431 cell it was 7.17 µM. Moreover, in assay [1], the “Selectivity (WT/T790M)” value is reported as 72.6.
The corresponding values for `C=CC(=O)Nc1cccc(C(F)(F)c2nc(Nc3ccc(N4CCN(CC)CC4)cc3)ncc2F)c1` [Compound 39] are 0.041 µM, 0.71 µM and 17.3.
For `C=CC(=O)Nc1cccc(C(F)(F)c2nc(Nc3ccc(N4CCN(C)CC4)nc3)nc3[nH]ccc23)c1` [Compound 28b, N-(3-(difluoro(2-(6-(4-methylpiperazin-1-yl)pyridin-3-ylamino)-7H-pyrrolo[2,3-d]pyrimidin-4-yl)methyl)phenyl)acrylamide], the 50% inhibitory concentration (IC50) in assay [1] is 0.026 µM; on EGFR (WT), A431 cell it was 12 µM. Moreover, the “Selectivity (WT/T790M)” value in assay [1] was 466.
The corresponding values for `C/C=C/C(=O)Nc1cccc(C(F)(F)c2nc(Nc3ccc(N4CCN(C)CC4)cc3)ncc2F)c1` [Compound 40] are 1.74 µM, 25.3 µM and 14.6.
Consider `C=CC(=O)Nc1cccc(C(F)(F)c2nc(Nc3ccc(N4CCN(C)CC4)nc3)ncc2OC)c1` [Compound 31], for which the IC50 was 0.03 µM in assay [1] and more than 20 µM at EGFR (WT), A431 cell. For the same compound, in assay [1], the “Selectivity (WT/T790M)” value was more than 657.
The matching figures for `C=CC(=O)Nc1cccc(C(F)(F)c2nc(Nc3ccc(N4CCN(C)CC4)c(F)c3)ncc2OC)c1` [Compound 34]: 0.038 µM, 4.37 µM and 113.
The matching figures for `C=CC(=O)Nc1cccc(C(F)(F)c2nc(Nc3ccc(N4CCN(C)CC4)cc3OC)ncc2OC)c1` [Compound 63]: 0.03 µM, 28.8 µM and 974.
The corresponding values for `C=CC(=O)Nc1cccc(C(F)(F)c2nc(Nc3ccc(N4CCN(C)CC4)cc3)ncc2OC)c1` [Compound 35] are 0.062 µM, 3.61 µM and 58.4.
Turning to `C=CC(=O)Nc1cccc(C(F)(F)c2nc(Nc3ccc(N4CCN(C)CC4)cc3OC)nc3[nH]ccc23)c1` [Compound 28d, N-(3-(difluoro(2-(2-methoxy-4-(4-methylpiperazin-1-yl)phenylamino)-7H-pyrrolo[2,3-d]pyrimidin-4-yl)methyl)phenyl)acrylamide], in assay [1], inhibition was half-maximal at 0.158 µM (IC50) and the “Selectivity (WT/T790M)” value is listed as more than 127. The compound also registered an IC50 on EGFR (WT), A431 cell of more than 20 µM.
The corresponding values for `C/C=C/C(=O)Nc1cccc(C(F)(F)c2nc(Nc3ccc(N4CCN(CC)CC4)cc3)ncc2F)c1` [Compound 42] are 1.63 µM, 7.2 and 11.8 µM.
Consider `C=CC(=O)Nc1cccc(C(F)(F)c2nc(Nc3ccc(N4CCN(C)CC4)cc3)ncc2C)c1` [Compound 37], for which, in assay [1], the IC50 stood at 0.106 µM and the “Selectivity (WT/T790M)” value is 105. The same compound registered an IC50 at EGFR (WT), A431 cell of 11.1 µM.
The matching figures for `C=CC(=O)Nc1cccc(C(F)(F)c2nc(Nc3ccc(N4CCN(C)CC4)cc3)nc3c2ccn3CO)c1` [Compound 27a, N-(3-(difluoro(7-(hydroxymethyl)-2-(4-(4-methylpiperazin-1-yl)phenylamino)-7H-pyrrolo[2,3-d]pyrimidin-4-yl)methyl)phenyl)acrylamide]: 0.058 µM, 403 and 23.4 µM.
The corresponding values for `C=CC(=O)Nc1cccc(C(F)(F)c2nc(Nc3ccc(N4CCN(C)CC4)cc3OC)ncc2F)c1` [Compound 32] are 1.3 µM, more than 15.4 and more than 20 µM.
In the case of `C=CC(=O)Nc1cccc(C(F)(F)c2nc(Nc3ccc(N4CCN(C)CC4)cc3)nc3[nH]cnc23)c1` [Compound 13a, N-(3-(difluoro(2-(4-(4-methylpiperazin-1-yl)phenylamino)-9H-purin-6-yl)methyl)phenyl)acrylamide], the “H1975 cell viability assay (under head IC50 (uM), results in words)” value (“H1975 cell viability assay” for short) in the assay on H1975 cells is reported as “Active”. Moreover, the IC50 in the assay with A549 cells was more than 20 µM; in the assay with HeLa cells, more than 2.2 µM; in the assay with EGFR in H1975 cells it was 1.7 µM; with EGFR in A431 cells it was 2.4 µM; in assay [1] it was 0.17 µM; at EGFR (WT), A431 cell, 13.7 µM. Besides, the “Selectivity (WT/T790M)” value in assay [1] stood at 82.
Turning to `C=CC(=O)Nc1cccc(Oc2nc(Nc3ccc(N4CCN(C)CC4)cc3OC)ncc2Cl)c1` [WZ4002, reference compound], the “H1975 cell viability assay” value in the assay on H1975 cells is on record as “Active”. Moreover, the IC50 is more than 20 µM in the assay on A549 cells, more than 6.7 µM in the assay with HeLa cells, 1.1 µM in the assay on EGFR in H1975 cells and 0.817 µM with EGFR in A431 cells.
Turning to `C=CC(=O)Nc1cccc(C(F)(F)c2nc(Nc3ccc(N4CCN(C)CC4)cc3OC)nc3[nH]cnc23)c1` [Compound 13b, N-(3-(difluoro(2-(2-methoxy-4-(4-methylpiperazin-1-yl)phenylamino)-9H-purin-6-yl)methyl)phenyl)acrylamide], the IC50 was more than 20 µM with A549 cells; more than 20 µM in the assay on HeLa cells; 1.9 µM in the assay with EGFR in H1975 cells; 4.1 µM in the assay with EGFR in A431 cells; 0.34 µM in assay [1]; 10.8 µM on EGFR (WT), A431 cell. In assay [1], the “Selectivity (WT/T790M)” value is 32.
With `C=CC(=O)Nc1cccc(C(F)(F)c2nc(Nc3ccc(N4CCN(C)CC4)cc3)ncc2Cl)c1` [Compound 38], in assay [1], 0.341 µM corresponded to half-maximal inhibition (IC50) and the “Selectivity (WT/T790M)” value came out at 11.2. The compound also came in with an IC50 against EGFR (WT), A431 cell of 3.81 µM.
The corresponding values for `C=CC(=O)Nc1cccc(C(F)(F)c2nc(Nc3ccc(N4CCN(C)CC4)c(F)c3)ncc2F)c1` [Compound 36] are 0.093 µM, 23.3 and 2.17 µM.
With `C=CC(=O)Nc1cccc(C(F)(F)c2nc(Nc3ccc(N4CCN(C)CC4)cc3)nc3[nH]ccc23)c1` [Compound 28a, N-(3-(difluoro(2-(4-(4-methylpiperazin-1-yl)phenylamino)-7H-pyrrolo[2,3-d]pyrimidin-4-yl)methyl)phenyl)acrylamide], the half-maximal inhibitory concentration (IC50) in assay [1] stood at 0.026 µM; against EGFR (WT), A431 cell, 2.73 µM. Also, in assay [1], the “Selectivity (WT/T790M)” value is 107.
`C=CC(=O)Nc1cccc(C(F)(F)c2nc(Nc3ccc(N4CCN(C)CC4)cc3)ncc2F)c1` [Compound 19, N-(3-(difluoro(5-fluoro-2-(4-(4-methylpiperazin-1-yl)phenylamino)pyrimidin-4-yl)methyl)phenyl)acrylamide]: in the assay on H1975 cells, the “H1975 cell viability assay” value is “Active”. For the same compound, the IC50 in the assay on A549 cells is more than 6.7 µM; in the assay on HeLa cells, more than 6.7 µM; in the assay with EGFR in H1975 cells, 1.1 µM; in the assay with EGFR in A431 cells, 0.97 µM; in assay [1], 0.029 µM; on EGFR (WT), A431 cell it was 2.46 µM. Further, the “Selectivity (WT/T790M)” value in assay [1] was determined as 85.
For `C=CC(=O)Nc1cccc(C(F)(F)c2nc(Nc3ccc(N4CCN(C)CC4)c(F)c3)nc3[nH]ccc23)c1` [Compound 28c, N-(3-(difluoro(2-(3-fluoro-4-(4-methylpiperazin-1-yl)phenylamino)-7H-pyrrolo[2,3-d]pyrimidin-4-yl)methyl)phenyl)acrylamide], in assay [1], the IC50 came out at 0.08 µM and the “Selectivity (WT/T790M)” value was 100. For the same compound, the 50% inhibitory concentration (IC50) against EGFR (WT), A431 cell is 8.05 µM.
